According to US12616713B2, “Methods for enhancing vascular density” (priority 2016, dated 2026):

Tested on: MLECs from WT and ESKO mice
Assay: Spheroid sprouting assay, MLECs
Type: cell-based, mouse
Conditions: WT versus ESKO MLECs, C2C12 CM, NMN 0.5 mM
Procedure: ECs spheroids were generated as described previously (Korff and Augustin, 1998, J Cell Biol 143, 1341-1352). ECs (1000 cells per spheroid) were suspended in EGM-2 medium containing 20% methocel (viscosity: 4000 cps, Sigma) and seeded in non-adherent round-bottom 96-well plates (Sigma). Under these conditions all suspended cells contributed to the formation of a single spheroid. The spheroids were harvested after 24 h embedded into collagen gels. Sprouting was initiated by adding C2C12 CM or EBM-2 medium containing VEGF (50 ng/mL). NMN (0.5 mM), NaHS (0.1 mM), DAPT (20 μM, Cayman Chemical) or SU5416 (10 μM, Sigma) were added to the media wherever mentioned. Angiogenic activity was quantified by measuring the sprout length that had grown out of each spheroid analyzing 8-10 spheroids per group.

NC(=O)c1ccc[n+]([C@@H]2O[C@H](COP(=O)([O-])O)[C@@H](O)[C@H]2O)c1 [NMN, nicotinamide mononucleotide]
ability of NMN to stimulate spheroid sprouting, dependence on SIRT1: SIRT1-dependent
